Patent publication US11447484B2, “Cyclic compound having dopamine D3 receptor antagonistic effect” (Shionogi & Co., Ltd., priority 2018, dated 2022)
pKi: −log10 of the molar value.

Tests used:
[1] = target: human recombinant D2 receptor (Homo sapiens (Human), UniProt P14416); experiment: Test of binding inhibition for dopamine D2 receptor; settings: Jump-In HEK cell membranes, 1.2 nM [3H]-Methylspiperone, 120 min at 25° C.; read-out: hD2_Ki
Method: Test Example 2: Test of Binding Inhibition for Dopamine D2 Receptor
(§1) (Experimental Conditions)
Cell membranes: Jump-In HEK cell membranes expressing human recombinant D2 receptor (2 μg/well)
(§2) Buffer solution: 50 mM Tris-HCl (35409-45, Nacalai Tesque) (pH 7.4) containing 120 mM NaCl (31320-05, Nacalai Tesque), 1 mM MgCl2.6H2O (20909-55, Nacalai Tesque), 5 mM KCl (28514-75, Nacalai Tesque) and 2 mM CaCl2 (067-31, NAKARAI CHEMICALS, LTD.)
Radioligand: (final concentration) 1.2 nM [^3H]-Methylspiperone ([^3H—N-methyl-]-Methylspiperone, NET-856, 83.8 Ci/mmol, PerkinElmer)
Non-specific ligand: (final concentration) 10 μM Butaclamol [(+)-Butaclamol Hydrochloride, D033; Sigma]
(§3) SPA beads solution: SPA beads [WGA PVT SPA Scintillation Beads, RPNQ0001 (500 mg), RPNQ0060 (2 g), PerkinElmer] (0.2 mg/well)
(§4) Incubation time and temperature: 120 min at 25° C.
(§5) Butaclamol or the compounds of the present invention were weighed and DMSO was added to make a 10 mM solution. This solution was diluted to each concentration.
[^3H]-Methylspiperone was weighed and the buffer solution was added to make a 3.6 nM solution.
(§6) SPA beads were weighed and stirred in water to make a 50 mg/mL solution. Using this solution, a mixture with the cell membranes was prepared.
(§7) 225 nL of the solutions of the non-specific ligand or the compounds of the present invention at each concentration (in case of vehicle, final concentration 0.3% DMSO) were added in each well of a 384-well white/clear bottom microplate (3706, Corning). Jump-In HEK Cell membranes (final reaction amount: 2 μg protein/well), the SPA bead solution (final reaction amount: 0.2 mg/well) and the buffer solution were mixed and the mixed solution was left still for 1 hour or more at 4° C. Then, 50 μL of the mixture was added to each well of the plate. In addition, 25 μL of 3.6 nM [^3H]-Methylspiperone (final concentration: 1.2 nM) was added to each well. The plate was sealed by putting TopSeal-A 96/384 well (6050185, PerkinElmer) on the top of the plate, mixed using stirring deaerator (Well Tornado, FK-62, Sakaki-elc.) and incubated for 120 min at 25° C. After incubation, the radioactivity of [^3H]-Methylspiperone which was bonded to D2 receptor was determined by liquid scintillation counter (1450 Microbeta, PerkinElmer) in each well. Non-specific binding was calculated based on the radioactivity of [^3H]-Methylspiperone in the presence of 10 μM non-labeled Butaclamol. The total binding was calculated using the radioactivity of [^3H]-Methylspiperone in the absence of the compounds of the present invention (vehicle). The Ki values were calculated from dose-response curves.
(§8) Binding activities of the compounds of the present invention were calculated from the following Binding Inhibition Rate (%): Inhibition Rate(%)=[1−(c−a)/(b−a)]×100 • a: Average cpm of non-specific binding • b: Average cpm of total binding • c: Cpm in the presence of each test compound

[2] = target: P-gp (human MDR1-expressing cells) (Homo sapiens (Human), UniProt P08183); experiment: P-gp substrate test; type: in vitro ADME; settings: efflux ratio (B→A/A→B) of MDR1-expressing cells compared with parent cells, Transwell monolayer
Sequence of P-gp (human MDR1-expressing cells) (P08183 whole entry): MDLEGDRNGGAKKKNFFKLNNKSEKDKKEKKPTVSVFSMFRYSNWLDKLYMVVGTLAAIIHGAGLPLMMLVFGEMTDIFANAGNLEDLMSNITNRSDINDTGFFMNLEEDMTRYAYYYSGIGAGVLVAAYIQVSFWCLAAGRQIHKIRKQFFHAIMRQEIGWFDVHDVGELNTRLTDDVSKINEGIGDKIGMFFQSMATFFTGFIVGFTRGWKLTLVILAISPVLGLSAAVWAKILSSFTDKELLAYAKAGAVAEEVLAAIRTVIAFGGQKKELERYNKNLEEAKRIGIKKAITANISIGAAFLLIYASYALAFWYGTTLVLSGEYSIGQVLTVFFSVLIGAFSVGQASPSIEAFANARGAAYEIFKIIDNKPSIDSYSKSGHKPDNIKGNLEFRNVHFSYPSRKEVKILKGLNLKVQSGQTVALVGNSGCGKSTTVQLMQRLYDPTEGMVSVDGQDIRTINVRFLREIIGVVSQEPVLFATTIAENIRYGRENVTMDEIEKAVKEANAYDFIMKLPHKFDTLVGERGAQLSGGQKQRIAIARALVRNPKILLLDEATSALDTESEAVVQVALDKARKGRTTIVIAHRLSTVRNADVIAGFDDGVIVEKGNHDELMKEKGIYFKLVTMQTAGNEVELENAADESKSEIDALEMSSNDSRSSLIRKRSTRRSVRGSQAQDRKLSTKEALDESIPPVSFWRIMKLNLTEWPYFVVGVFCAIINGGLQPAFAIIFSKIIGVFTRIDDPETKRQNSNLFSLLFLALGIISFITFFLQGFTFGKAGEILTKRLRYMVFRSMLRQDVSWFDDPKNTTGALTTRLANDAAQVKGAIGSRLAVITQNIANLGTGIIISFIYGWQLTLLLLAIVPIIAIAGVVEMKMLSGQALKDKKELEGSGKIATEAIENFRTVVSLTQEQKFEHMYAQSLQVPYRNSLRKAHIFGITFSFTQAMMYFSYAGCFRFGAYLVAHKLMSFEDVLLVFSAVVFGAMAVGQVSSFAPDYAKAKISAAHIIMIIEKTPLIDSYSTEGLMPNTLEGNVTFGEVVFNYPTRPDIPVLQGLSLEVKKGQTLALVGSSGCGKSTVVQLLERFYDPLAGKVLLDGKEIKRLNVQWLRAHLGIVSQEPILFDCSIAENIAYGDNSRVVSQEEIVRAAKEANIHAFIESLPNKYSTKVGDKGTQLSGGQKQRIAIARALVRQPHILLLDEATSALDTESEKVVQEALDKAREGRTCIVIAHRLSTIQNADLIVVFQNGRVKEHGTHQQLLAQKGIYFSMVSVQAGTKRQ
Method: Test Example 14: P-gp Substrate Test
The compound of the present invention was added to one side of Transwell (registered trademark, CORNING) where human MDR1-expressing cells or parent cells have been monolayer-cultured. The cells were reacted for a constant time. The membrane permeability coefficients from the apical side toward the basolateral side (A→B) and from the basolateral side toward the apical side (B→A) were calculated for the MDR1-expressing cells or the parent cells, and the efflux ratio (ER; ratio of the membrane permeability coefficients of B→A and A→B) values of the MDR1-expressing cells and the parent cells were calculated. The efflux ratio (ER) values of the MDR1-expressing cells and the parent cells were compared to confirm whether or not the compound of the present invention would be a P-gp substrate.

[3] = target: human recombinant D3 receptor (Homo sapiens (Human), UniProt P35462); experiment: Test of binding inhibition for dopamine D3 receptor; settings: Jump-In HEK cell membranes, 2 nM [3H]-Methylspiperone, 120 min at 25° C.; read-out: hD3_Ki
Sequence of human recombinant D3 receptor (P35462 whole entry): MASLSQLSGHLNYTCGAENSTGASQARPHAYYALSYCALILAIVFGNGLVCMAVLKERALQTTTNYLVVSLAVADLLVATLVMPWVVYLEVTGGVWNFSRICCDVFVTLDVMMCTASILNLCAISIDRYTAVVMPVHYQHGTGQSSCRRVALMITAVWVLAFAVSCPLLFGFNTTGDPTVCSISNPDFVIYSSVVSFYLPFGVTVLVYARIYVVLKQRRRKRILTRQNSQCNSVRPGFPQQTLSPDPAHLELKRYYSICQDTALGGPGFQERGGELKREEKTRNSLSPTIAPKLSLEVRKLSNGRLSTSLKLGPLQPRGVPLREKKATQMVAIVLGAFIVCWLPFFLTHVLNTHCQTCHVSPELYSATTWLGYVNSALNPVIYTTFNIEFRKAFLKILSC
Method: Test Example 1: Test of Binding Inhibition for Dopamine D3 Receptor
as §1
Cell membranes: Jump-In HEK cell membranes expressing human recombinant D3 receptor (4 μg/well)
as §2
Radioligand: (final concentration) 2 nM [^3H]-Methylspiperone ([^3H—N-methyl-]-Methylspiperone, NET-856, 83.8 Ci/mmol, PerkinElmer)
Non-specific ligand: (final concentration) 10 μM Butaclamol [(+)-Butaclamol Hydrochloride, D033, Sigma]
as §3, §4, §5
[^3H]-Methylspiperone was weighed and the buffer solution was added to make a 6 nM solution.
as §6
as §7, with “amount: 4” for “amount: 2”, “SPA beads” for “SPA bead”, “of 6” for “of 3.6”, “concentration: 2” for “concentration: 1.2”, “(6050185, PerkinElmer, Inc.)” for “(6050185, PerkinElmer)”, “to D3” for “to D2”
as §8

Sequence of human recombinant D2 receptor (P14416 whole entry): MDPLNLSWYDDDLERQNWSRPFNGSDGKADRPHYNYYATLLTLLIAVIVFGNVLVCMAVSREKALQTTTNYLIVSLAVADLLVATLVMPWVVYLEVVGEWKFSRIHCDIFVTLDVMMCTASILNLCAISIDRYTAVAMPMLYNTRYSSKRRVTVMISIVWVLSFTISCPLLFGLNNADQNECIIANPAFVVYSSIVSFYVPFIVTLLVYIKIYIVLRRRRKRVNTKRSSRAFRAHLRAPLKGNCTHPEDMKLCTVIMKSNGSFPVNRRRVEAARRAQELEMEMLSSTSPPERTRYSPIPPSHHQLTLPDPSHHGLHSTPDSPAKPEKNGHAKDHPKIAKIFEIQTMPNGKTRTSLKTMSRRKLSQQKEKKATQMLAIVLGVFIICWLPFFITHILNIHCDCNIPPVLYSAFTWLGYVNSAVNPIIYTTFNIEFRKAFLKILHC

SMILES | pKi [1] | P-gp ER ratio [2] | pKi [3]
Cc1ncc(CC(=O)N[C@H]2CC[C@H](CCN3C[C@@H]4C[C@]4(c4cc(C(C)(F)F)on4)C3)CC2)o1 [Compound I-041] | 6.62 | – | 9.55
O=C(N[C@H]1CC[C@H](CCN2CCC(c3conc3-c3ccccc3)CC2)CC1)c1cccc2ncccc12 [Compound I-005] | 6.07 | – | 8.92
Cc1ncc(CC(=O)N[C@H]2CC[C@H](CCN3CCC(c4noc(C)c4C(C)(F)F)CC3)CC2)s1 [Compound I-009] | 6.48 | – | 8.72
Cc1ncc(CC(=O)N[C@H]2CC[C@H](CCN3CCC(c4nocc4CC4CC4)CC3)CC2)s1 [Compound I-011] | 6.42 | – | 9.20
Cc1ncc(CC(=O)N[C@H]2CC[C@H](CCN3CCC(c4nscc4C(C)(F)F)CC3)CC2)s1 [Compound I-012] | 6.34 | – | 8.72
Cc1ncc(OCC(=O)N[C@H]2CC[C@H](CCN3C[C@@H]4C[C@]4(c4cc(C5CC5)on4)C3)CC2)cn1 [II-4] | 6.14 | – | 9.35
Cc1cc(C23CC2CN(CC[C@H]2CC[C@H](NC(=O)Cc4cnc(C)s4)CC2)C3)no1 (some centres unmarked) [Compound I-031] | < 5.74 | – | 8.42
Cn1cc2c(C(=O)N[C@H]3CC[C@H](CCN4CCC(c5nocc5C(F)(F)C5CC5)CC4)CC3)cccc2n1 [Compound I-018] | 7.35 | – | 9.66
Cc1cc(CC(=O)N[C@H]2CC[C@H](CCN3C[C@@H]4C[C@]4(c4cc(C(C)(F)F)on4)C3)CC2)on1 [Compound I-042] | 5.89 | – | 10.21
Cn1cc2c(C(=O)N[C@H]3CC[C@H](CCN4CCC5(c6nocc6C(C)(F)F)CC5C4)CC3)cccc2n1 (some centres unmarked) [Compound I-021] | 5.77 | – | 8.32
Cc1ncc(OCC(=O)N[C@H]2CC[C@H](CCN3C[C@@H]4C[C@]4(c4cc(C(C)(F)F)on4)C3)CC2)cn1 [Compound I-046] | 6.48 | 1.9 | 9.70
Cn1cc2c(C(=O)N[C@H]3CC[C@](F)(CCN4CCC(c5nocc5C(C)(F)F)CC4)CC3)cccc2n1 [Compound I-026] | 6.60 | – | 9.26
Cc1ncc(CC(=O)N[C@H]2CC[C@H](CCN3CCN(c4nocc4C(C)(F)F)C(C)C3)CC2)s1 (some centres unmarked) [Compound I-019] | 7.17 | – | 9.82

Now from value to compound:

pKi [1] | P-gp ER ratio [2] | pKi [3] | SMILES
6.04 | 2.4 | 9.24 | CCc1cc([C@]23C[C@H]2CN(CC[C@H]2CC[C@H](NC(=O)Cc4cnc(C)o4)CC2)C3)no1 [Compound I-052]
6.14 | 1.3 | 9.15 | CCc1cc(C23CC2CN(CC[C@H]2CC[C@H](NC(=O)c4cccc5nn(C)cc45)CC2)C3)no1 (some centres unmarked) [Compound I-034]
6.54 | – | 9.15 | CCc1cc([C@]23C[C@H]2CN(CC[C@H]2CC[C@H](NC(=O)c4cccc5nn(C)cc45)CC2)C3)no1 [Compound I-037]
6.08 | – | 9.36 | CCc1cc([C@]23C[C@H]2CN(CC[C@H]2CC[C@H](NC(=O)COc4cnc(C)nc4)CC2)C3)no1 [Compound I-049]
7.07 | – | 9.89 | CN1Cc2c(C(=O)N[C@H]3CC[C@H](CCN4C[C@@H]5C[C@]5(c5cc(C(C)(F)F)on5)C4)CC3)cccc2C1=O [Compound I-045]
6.64 | – | 9.33 | CCc1cc([C@]23C[C@H]2CN(CC[C@H]2CC[C@H](NC(=O)c4cccn5nccc45)CC2)C3)no1 [Compound I-057]
7.04 | – | 10.14 | CCn1c(C(=O)N[C@H]2CC[C@H](CCN3C[C@@H]4C[C@]4(c4cc(C(C)(F)F)on4)C3)CC2)cccc1=O [Compound I-038]
6.70 | – | 9.40 | Cn1cc2c(C(=O)N[C@H]3CC[C@H](CCN4CC5CC5(c5cc(C(F)F)on5)C4)CC3)cccc2n1 (some centres unmarked) [Compound I-032]
5.96 | 1.9 | 9.32 | CCc1cc([C@]23C[C@H]2CN(CC[C@H]2CC[C@H](NC(=O)Cc4cnn(C)n4)CC2)C3)no1 [Compound I-053]
5.92 | – | 8.62 | Cn1cc2c(C(=O)N[C@H]3CC[C@H](CCN4CCC5CC5(c5cc(C(C)(F)F)on5)C4)CC3)cccc2n1 (some centres unmarked) [Compound I-025]
6.77 | – | 9.96 | Cn1cc2c(C(=O)N[C@H]3CC[C@H](CCN4CCC(c5nocc5C(C)(F)F)CC4)CC3)cccc2n1 [Compound I-022]
6.57 | – | 9.35 | Cn1cc(CC(=O)N[C@H]2CC[C@H](CCN3C[C@@H]4C[C@]4(c4cc(C(C)(F)F)on4)C3)CC2)cn1 [Compound I-043]
6.28 | – | 8.85 | CCc1cc([C@]23C[C@H]2CN(CC[C@H]2CC[C@H](NC(=O)c4cccnc4C)CC2)C3)no1 [Compound I-047]
